Data set [1] concerns Acinetobacter baumannii BAA 747. The format is cell-based. As to conditions: BAA 747, 18 h. The method, then: (§1) The minimal inhibitory concentration (MIC) and minimal bactericidal concentration (MBC) values of the peptides were determined by established protocols to evaluate their antimicrobial activities ([Lin et al., 2021]). The MIC value was the lowest concentration of a peptide that inhibits visible bacterial growth after incubating 18 h (CLSI standard). Once the MIC values were determined, an aliquot from the bacterial culture exposed to the peptide at or above its MIC value was inoculated on a Mueller Hinton agar (MHA) and was incubated at 37 for 18 h (CLSI standard). The MBC value was the lowest concentration of a peptide that kills 99.9% of bacteria. Antimicrobial activities of synthetic peptides were assessed by determination of MIC and MBC values using eight kinds of bacteria and yeast: Gram-positive bacteria, Staphylococcus aureus ATCC 6538 (S. aureus 6538), Methicillin-resistant Staphylococcus aureus NCTC 12493 (MRSA 12493), and Enterococcus faecalis NCTC 12697 (E. faecium 12697); Gram-negative bacteria, Escherichia coli ATCC 8739 (E. coli 8739), Pseudomonas aeruginosa ATCC CRM 9027 (P. aeruginosa 9027), Klebsiella pneumoniae ATCC 43816 (K. pneumoniae 43816), and Acinetobacter baumannii BAA 747 (A. baumannii 747); and pathogenic yeast, Candida albicans ATCC 10231 (C. albicans 10231).

For data set [2], the system named is Candida albicans ATCC 10231. The format is cell-based. As to conditions: ATCC 10231, 18 h. On the procedure:
as §1

The test system of data set [3] is Escherichia coli ATCC 8739. The class given is cell-based. As to conditions: ATCC 8739, 18 h. On the procedure:
as §1

In data set [4] the test system is Klebsiella pneumoniae ATCC 43816. The class given is cell-based. The following applies: ATCC 43816, 18 h. On the procedure: as §1
Data set [5] concerns Methicillin-resistant Staphylococcus aureus NCTC 12493. The format is cell-based. The following applies: NCTC 12493, 18 h. On the procedure: as §1
Data set [6] deals with Pseudomonas aeruginosa ATCC CRM 9027. The class given is cell-based. The following applies: ATCC CRM 9027, 18 h. On the procedure:
as §1

Data set [7] concerns Staphylococcus aureus ATCC 6538. The class given is cell-based. As to conditions: ATCC 6538, 18 h. On the procedure:
as §1

A further data set concerns E. faecium 12697. The class given is cell-based, Enterococcus faecalis NCTC 12697 (E. faecium 12697). The following applies: 12697, 18 h. On the procedure: as §1
A further data set relates to horse erythrocytes. The class given is cell-based. The method, then:
The hemolytic activity of the peptides was assessed using horse erythrocytes. Horse erythrocytes were selected due to their similarity to human erythrocytes in membrane composition and widespread use in AMP studies for standardization. Following a previously established protocol ([Gao et al., 2016]). Peptide solutions with final concentrations ranging from 1 µM to 128 µM were incubated with 2% horse erythrocytes at 37°C for 2 h. Triton X-100 (1%) served as the positive control, while sterile PBS was used as the blank control. After that, the peptide-horse erythrocytes mixture was centrifuged at 930 g for 10 min, and the absorbance at 570 nm of the supernatant was measured. The hemolysis rate was calculated using the formal: Percentage Hemolysis = (Absorbance of sample − Absorbance of blank)/(Absorbance of Positive- Absorbance of Blank) × 100%

A further data set deals with HaCaT cells. The class given is cell-based, human. The method, then:
Lung cancer cell line, H838 (ATCC, United States), breast cancer cell line, MCF7 (ATCC, United States), and human immortalized keratinocytes, HaCat (Caltag Medsystems, United Kingdom), were used in this experiment to test the anti-proliferation activity of peptides brevine-1pl and its four analogues. H838 cells were maintained in RPMI-1640 medium (Gibco, United Kingdom), whereas MCF-7 and HaCaT cells were cultured in DMEM medium (Gibco, United Kingdom), supplemented with 10% (v/v) fetal bovine serum (FBS, Gibco, United Kingdom) and 1% (v/v) penicillin-streptomycin (PS, Gibco, United Kingdom). Cells were seeded in 96-well plates at densities of 8,000 cells/well for H838 and MCF-7 and 10,000 cells/well for HaCaT, followed by overnight incubation at 37°C under 5% CO2 to allow adherence. Following attachment, cells were exposed to peptide solutions at final concentrations ranging from 10^–4 M to 10^–9 M. After 22 h of treatment, 0.5 mg/ml MTT solution was added to each well and incubated at 37°C for 4 h. The medium was then aspirated, and 100 μl of DMSO was added to solubilize formazan crystals. Plates were agitated for 15 min in a shaking incubator, and absorbance was measured at 570 nm using a Synergy HT microplate reader. […] Cell viability (%) was calculated using the formula: Viability (%) = (ODtreated − ODblank)/(ODcontrol− ODblank) *100. […]

In brackets after ≈: the same amount, converted by molar mass. Positions of bridges follow the written chain, without caps; N, C: chain ends. Residues, ends and D or L forms follow the SMILES beside them.

Data on one compound can be found in publication PMC12127288, “Engineering of antimicrobial peptide Brevinin-1pl: arginine, lysine, and histidine substitutions enhance antimicrobial-anticancer efficacy with reduced cytotoxicity” (Frontiers in Chemistry, 2025).

For orientation: MIC means the least concentration at which growth counts as inhibited. Read a high MIC as a less susceptible organism. For the compound `CC[C@H](C)[C@H](NC(=O)[C@H](Cc1c[nH]cn1)NC(=O)[C@H](Cc1c[nH]cn1)NC(=O)[C@H](CC(C)C)NC(=O)[C@@H](NC(=O)[C@H](Cc1c[nH]cn1)NC(=O)[C@H](C)NC(=O)[C@H](C)NC(=O)[C@@H](NC(=O)CNC(=O)[C@H](C)NC(=O)[C@@H](NC(=O)[C@@H](NC(=O)[C@@H]1CCCN1C(=O)[C@H](Cc1ccccc1)NC(=O)[C@@H](N)Cc1ccccc1)[C@@H](C)CC)C(C)C)C(C)C)C(C)C)C(=O)N[C@@H](Cc1ccccc1)C(=O)N[C@H]1CSSC[C@@H](C(=O)O)NC(=O)[C@H](CCCCN)NC(=O)[C@H](CCCCN)NC(=O)[C@H](CO)NC(=O)[C@H]([C@@H](C)CC)NC(=O)[C@H]([C@@H](C)O)NC1=O` [brevinin-1pl-3H] (H-FFPIVAGVAAHVLHHIFCTISKKC-OH; disulfide 18-24), the MBC was above 128 µM in [1]; above 128 µM in [2]; 32 µM (≈ 84.4 µg/mL) in data set [3]; 64 µM (≈ 169 µg/mL) in data set [4]; 4/4 µM in data set [5]; 64 µM (≈ 169 µg/mL) in data set [6]. For the same compound, the MBC amounted to 8 µM (≈ 21.1 µg/mL) in data set [7] and 32 µM (≈ 84.4 µg/mL) against E. faecium 12697. Further, the MIC in data set [1] was above 128 µM; in [2] it was 64 µM (≈ 169 µg/mL); in data set [3], 32 µM (≈ 84.4 µg/mL); in [4] it was 32 µM (≈ 84.4 µg/mL); in data set [6], 64 µM (≈ 169 µg/mL); in data set [7], 8 µM (≈ 21.1 µg/mL). This compound also returned an MIC in the data set with E. faecium 12697 of 16 µM (≈ 42.2 µg/mL). Further, the “Hemolytic activity at 16 μM (in words)” value in the data set on horse erythrocytes was “low hemolytic activity”. Besides, in the data set with HaCaT cells, the “Cytotoxicity toward normal HaCaT cells (in words)” value is on record as “low cytotoxicity”.
